Test results published in patent publication US8569509B2, “Thiazole-4-carboxylic acid esters and thioesters as plant protection agents” (priority 2008, dated 2013).

Tested on: Phytophthora infestans
Assay: not given
Format: in vivo
Settings: tomato plants, protective, application rate 10 ppm, evaluation 3 days after inoculation
`Cc1cc(C(F)(F)F)nn1CC(=O)N1CCC(c2nc(C(=O)OCc3ccccc3Cl)cs2)CC1` [Ex. 23] gave an Efficacy in % of 94%. `Cc1cc(C(F)(F)F)nn1CC(=O)N1CCC(c2nc(C(=O)NCc3ccccc3Cl)cs2)CC1` [reference compound] gave an Efficacy in % of 65%.

Tested on: Plasmopara viticola
Assay: Plasmopara test (grapevine)/protective
Format: in vivo
Settings: grapevine plants, protective, application rate 1 ppm, evaluation 6 days after inoculation
Procedure: Plasmopara Test (Grapevine)/Protective
After the spray coating has dried on, the plants are inoculated with an aqueous spore suspension of Plasmopara viticola and then remain in an incubation cabin at about 20° C. and 100% relative atmospheric humidity for 1 day. The plants are then placed in a greenhouse at about 21° C. and about 90% atmospheric humidity for 4 days. The plants are then moistened and placed in an incubation cabin for 1 day.
Evaluation is carried out 6 days after the inoculation.
For `Cc1cc(C(F)(F)F)nn1CC(=O)N1CCC(c2nc(C(=O)OC3CCCc4ccccc43)cs2)CC1` (centres unmarked) [Ex. 6], the Efficacy in % was 91%. Work on `Cc1cc(C(F)(F)F)nn1CC(=O)N1CCC(c2nc(C(=O)N(C)C3CCCc4ccccc43)cs2)CC1` (centres unmarked) [drawing 26, reference compound] yielded an Efficacy in % of 72%.

Tested on: Plasmopara viticola
Assay: Plasmopara test (grapevine)/curative
Format: in vivo
Settings: grapevine plants, curative, application rate 100 ppm, evaluation 6 days after inoculation
`Cc1cc(C(F)(F)F)nn1CC(=O)N1CCC(c2nc(C(=O)OC3CCCc4ccccc43)cs2)CC1` (centres unmarked) [Ex. 6] gave an Efficacy in % of 84%. For `Cc1cc(C(F)(F)F)nn1CC(=O)N1CCC(c2nc(C(=O)N(C)C3CCCc4ccccc43)cs2)CC1` (centres unmarked) [drawing 28, reference compound], the Efficacy in % was 37%.

Tested on: not listed separately
Assay: log P determination (HPLC, calibration with unbranched alkan-2-ones)
Format: physicochemical
Settings: * LC-MS determination in the acidic range at pH 2.7, mobile phases 0.1% aqueous formic acid and acetonitrile (0.1% formic acid), linear gradient 10% to 95% acetonitrile; reversed-phase C 18 HPLC
Procedure: The calibration is carried out using unbranched alkan-2-ones (having 3 to 16 carbon atoms) with known log P values (determination of the log P values by the retention times using linear interpolation between two successive alkanones). The lambda-maX values were determined in the maxima of the chromatographic signals using the UV spectra from 200 nm to 400 nm.
In the case of `Cc1cc(C(F)(F)F)nn1CC(=O)N1CCC(c2nc(C(=O)Oc3cccc4ncccc34)cs2)CC1` [compound 807], the log p is reported as 2.59*. In the case of `Cc1cc(C(F)(F)F)nn1CC(=O)N1CCC(c2nc(C(=O)OC(c3ccccc3)c3ccccc3)cs2)CC1` [compound 808], the log p is reported as 4.17*. With `Cc1cc(C(F)(F)F)nn1CC(=O)N1CCC(c2nc(C(=O)Oc3cccc4ocnc34)cs2)CC1` [compound 809] the log p was 2.81*. With `COc1ccccc1OC(=O)c1csc(C2CCN(C(=O)Cn3nc(C(F)(F)F)cc3C)CC2)n1` [compound 814] the log p was 3.17*. In the case of `Cc1cc(C(F)(F)F)nn1CC(=O)N1CCC(c2nc(C(=O)OC(c3ccccc3)C3CC3)cs2)CC1` (centres unmarked) [compound 815], the log p is reported as 3.87*. With `COc1cccc(OC)c1OC(=O)c1csc(C2CCN(C(=O)Cn3nc(C(F)(F)F)cc3C)CC2)n1` [compound 816] the log p was 3.12*. In the case of `COc1ccccc1COC(=O)c1csc(C2CCN(C(=O)Cn3nc(C(F)(F)F)cc3C)CC2)n1` [compound 817], the log p is reported as 3.44*. For `Cc1cc(C(F)(F)F)nn1CC(=O)N1CCC(c2nc(C(=O)OCc3c(Cl)cc(Cl)cc3Cl)cs2)CC1` [compound 818], the log p was 4.53*. For `Cc1cc(C(F)(F)F)nn1CC(=O)N1CCC(c2nc(C(=O)OCc3ccc(OC(F)(F)F)cc3)cs2)CC1` [compound 819], the log p was 3.99*. In the case of `Cc1cc(C(F)(F)F)nn1CC(=O)N1CCC(c2nc(C(=O)Oc3ccccc3-c3ccccc3)cs2)CC1` [compound 821], the log p is reported as 3.96*. In the case of `Cc1cc(C(F)(F)F)nn1CC(=O)N1CCC(c2nc(C(=O)Oc3cccc(Oc4ccccc4)c3)cs2)CC1` [compound 824], the log p is reported as 4.18*. With `Cc1cc(C(F)(F)F)nn1CC(=O)N1CCC(c2nc(C(=O)Oc3ccc(Oc4ccccc4)cc3)cs2)CC1` [compound 825] the log p was 4.14*. With `C#CC1(OC(=O)c2csc(C3CCN(C(=O)Cn4nc(C(F)(F)F)cc4C)CC3)n2)CCCCC1` [compound 826] the log p was 3.76*. In the case of `Cc1cc(C(F)(F)F)nn1CC(=O)N1CCC(c2nc(C(=O)OC3(C#N)CCCCC3)cs2)CC1` [compound 827], the log p is reported as 3.33*. With `Cc1cc(C(F)(F)F)nn1CC(=O)N1CCC(c2nc(C(=O)OC3CCC(C(C)(C)C)CC3)cs2)CC1` (centres unmarked) [compound 828] the log p was 5.19*. For `Cc1cc(C(F)(F)F)nn1CC(=O)N1CCC(c2nc(C(=O)OC3CC(C)CCC3C(C)C)cs2)CC1` (centres unmarked) [compound 829], the log p was 5.22*. With `Cc1cc(C(F)(F)F)nn1CC(=O)N1CCC(c2nc(C(=O)OC3CCC4(CC3)OCCO4)cs2)CC1` [compound 830] the log p was 2.90*. In the case of `Cc1cc(C(F)(F)F)nn1CC(=O)N1CCC(c2nc(C(=O)OC3C(C)CCCC3C)cs2)CC1` (centres unmarked) [compound 831], the log p is reported as 4.40*. In the case of `Cc1cc(C(F)(F)F)nn1CC(=O)N1CCC(c2nc(C(=O)OC3CCCCC3C)cs2)CC1` (centres unmarked) [compound 832], the log p is reported as 4.12*. In the case of `CCCCCCCCOC(=O)c1csc(C2CCN(C(=O)Cn3nc(C(F)(F)F)cc3C)CC2)n1` [compound 833], the log p is reported as 5.02*. For `COc1ccc(COC(=O)c2csc(C3CCN(C(=O)Cn4nc(C(F)(F)F)cc4C)CC3)n2)c(OC)c1` [compound 834], the log p was 3.33*. With `Cc1cc(C(F)(F)F)nn1CC(=O)N1CCC(c2nc(C(=O)OCc3c(F)cc(F)cc3F)cs2)CC1` [compound 835] the log p was 3.53*. With `Cc1cc(C(F)(F)F)nn1CC(=O)N1CCC(c2nc(C(=O)OCc3ccccc3C(F)(F)F)cs2)CC1` [compound 836] the log p was 3.84*. In the case of `Cc1cc(C(F)(F)F)nn1CC(=O)N1CCC(c2nc(C(=O)OCc3ccccc3OC(F)(F)F)cs2)CC1` [compound 837], the log p is reported as 3.95*. With `CC(C)(C)c1cc(C(F)(F)F)n(CC(=O)N2CCC(c3nc(C(=O)OCC4CCCCC4)cs3)CC2)n1` [compound 847] the log p was 4.75*. In the case of `CC(C)(C)c1cc(C(F)(F)F)nn1CC(=O)N1CCC(c2nc(C(=O)OCC3CCCCC3)cs2)CC1` [compound 848], the log p is reported as 4.51*. With `CC(C)(C)c1cc(C(F)(F)C(F)(F)F)n(CC(=O)N2CCC(c3nc(C(=O)OCC4CCCCC4)cs3)CC2)n1` [compound 849] the log p was 5.08*. With `CC(C)(C)c1cc(C(F)(F)C(F)(F)F)nn1CC(=O)N1CCC(c2nc(C(=O)OCC3CCCCC3)cs2)CC1` [compound 850] the log p was 4.94*. For `CC(C)c1cc(C(F)(F)F)n(CC(=O)N2CCC(c3nc(C(=O)OCC4CCCCC4)cs3)CC2)n1` [compound 851], the log p was 4.35*. For `CCc1cc(C(F)(F)F)n(CC(=O)N2CCC(c3nc(C(=O)OCC4CCCCC4)cs3)CC2)n1` [compound 852], the log p was 3.99*. With `Cc1cc(C(F)(F)F)nn1CC(=O)N1CCC(c2nc(C(=O)O[C@H]3CCCc4ccccc43)cs2)CC1` [compound 853] the log p was 4.06*.

Same assay, conditions: pH 2.7; read-out: log P (pH 2.7)
With `O=C(OC1CCCCC1)c1csc(C2CCN(C(=O)Cn3nc(C(F)F)cc3C(F)F)CC2)n1` [compound 811, Cyclohexyl 2-(1-{[3,5-bis(difluoromethyl)-1H-pyrazol-1-yl]acetyl}piperidin-4-yl)-1,3-thiazole-4-carboxylate] the chromatographic logP was 3.64. `O=C(Oc1cccc2ccccc12)c1csc(C2CCN(C(=O)Cn3nc(C(F)F)cc3C(F)F)CC2)n1` [compound 813, 1-Naphthyl 2-(1-{[3,5-bis(difluoromethyl)-1H-pyrazol-1-yl]acetyl}piperidin-4-yl)-1,3-thiazole-4-carboxylate] showed a chromatographic logP of 3.64. `Cc1cc(C(F)(F)F)nn1CC(=O)N1CCC(c2nc(C(=O)OCc3ccccc3Br)cs2)CC1` [compound 820, 2-Bromobenzyl 2-(1-{[5-methyl-3-(trifluoromethyl)-1H-pyrazol-1-yl]acetyl}piperidin-4-yl)-1,3-thiazole-4-carboxylate] showed a chromatographic logP of 3.8. With `O=C(OC1CCCCC1)c1csc(C2CCN(C(=S)Cn3nc(C(F)F)cc3C(F)F)CC2)n1` [compound 854, Cyclohexyl 2-(1-{2-[3,5-bis(difluoromethyl)-1H-pyrazol-1-yl]ethanethioyl}piperidin-4-yl)-1,3-thiazole-4-carboxylate] the chromatographic logP was 4.23.

Same assay, conditions: reversed-phase (C18) HPLC column; * LC-MS determination in the acidic range, pH 2.7, 0.1% aqueous formic acid and acetonitrile, linear gradient 10% to 95% acetonitrile; read-out: log p
In the case of `Cc1cc(C(F)(F)F)nn1CC(=O)N1CCC(c2nc(C(=O)OCc3ccccc3Cl)cs2)CC1` [Ex. 23], the chromatographic logP is reported as 3.7.

Same assay, conditions: reversed-phase (C18) HPLC column; ** determination in the acidic range, pH 2.3, 0.1% aqueous phosphoric acid and acetonitrile, linear gradient 10% to 95% acetonitrile; read-out: log p
`Cc1cc(C(F)(F)F)nn1CC(=O)N1CCC(c2nc(C(=O)OC3CCCc4ccccc43)cs2)CC1` (centres unmarked) [Ex. 6] showed a chromatographic logP of 4.01.

Same assay, conditions: reversed-phase C18 HPLC column; * LC-MS determination in the acidic range at pH 2.7, mobile phases 0.1% aqueous formic acid and acetonitrile (0.1% formic acid), linear gradient 10% to 95% acetonitrile; reversed-phase C 18 HPLC; read-out: log p
`O=C(OC1CCCCC1)c1csc(C2CCN(C(=O)Cn3nc(C(F)F)cc3C(F)F)CC2)n1` [compound 811, Cyclohexyl 2-(1-{[3,5-bis(difluoromethyl)-1H-pyrazol-1-yl]acetyl}piperidin-4-yl)-1,3-thiazole-4-carboxylate] gave a chromatographic logP of 3.64. In the case of `O=C(Oc1cccc2ccccc12)c1csc(C2CCN(C(=O)Cn3nc(C(F)F)cc3C(F)F)CC2)n1` [compound 813, 1-Naphthyl 2-(1-{[3,5-bis(difluoromethyl)-1H-pyrazol-1-yl]acetyl}piperidin-4-yl)-1,3-thiazole-4-carboxylate], the chromatographic logP is reported as 3.64. `Cc1cc(C(F)(F)F)nn1CC(=O)N1CCC(c2nc(C(=O)OCc3ccccc3Br)cs2)CC1` [compound 820, 2-Bromobenzyl 2-(1-{[5-methyl-3-(trifluoromethyl)-1H-pyrazol-1-yl]acetyl}piperidin-4-yl)-1,3-thiazole-4-carboxylate] gave a chromatographic logP of 3.8. Work on `O=C(OC1CCCCC1)c1csc(C2CCN(C(=S)Cn3nc(C(F)F)cc3C(F)F)CC2)n1` [compound 854, Cyclohexyl 2-(1-{2-[3,5-bis(difluoromethyl)-1H-pyrazol-1-yl]ethanethioyl}piperidin-4-yl)-1,3-thiazole-4-carboxylate] yielded a chromatographic logP of 4.23.
